In the data set the test system is EAE. Also noted: species or system New Zealand white rabbits. As to conditions: rabbit, in vivo. As to the method: The emulsion was injected SC in multiple sites in the dorsal area of the neck and the tail. Rabbits were immunized either with the free peptide or with peptide conjugated to KLH. […] All rabbits were bled via the ear vein after they were placed in restraining cages and tranquilized with ace-promozine. To prevent hypovolemia, the amount of blood removed was replaced with sterile saline. Sera from individual rats or rabbits were prepared from clotted blood by centrifugation. All sera were decomplemented for 30 minutes at 56°C and frozen in small aliquots to which sodium azide was added.

Ends that are not written are not given here.

As to DMGHGLRLIHYSYDVNSTEKG [TCR Vβ8(39-59)], the “Clinical Signs of EAE” value is given as “None”.

Source of the values: EP0552142B2, “T CELL RECEPTOR PEPTIDES AS THERAPEUTICS FOR AUTOIMMUNE AND MALIGNANT DISEASE” (priority 1989, dated 1991).
